Reference: BindingDB's records for doi:10.1016/j.bmcl.2012.12.095 (Astrazeneca, 2013)

Assay: Antagonist activity at CCR1 receptor in human THP1 cells assessed as inhibition of MIP-1alpha-induced chemotaxis after 2 hrs by fluorescence assay

For `CC(=O)Nc1ccc(O)cc1OC[C@@H](N)CN1CCC2(CC1)Cc1ccccc1O2`, the IC50 was 68 nM.
